Test results published in patent US20140005163A1 (NOVARTIS AG, priority 2010, published 2014).

Key:
[1] = molecular target: T1, PI3K gamma (Homo sapiens, UniProt P48736); assay: PI3K gamma kinase assay (Kinase-Glo luminescence); type: biochemical
T1 construct: His tag (C); made in house; host or cells: baculovirus (pVL1393); Tn5 or TiniPro insect cells; construct from Roger Williams lab, MRC LMB
How it was run: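 Luminescent ATP-depletion (Kinase-Glo) assay with 150 nM PI3Kγ, 1 μM ATP and 10 μg/mL phosphatidylinositol in 10 mM Tris-HCl pH 7.5, 3 mM MgCl2, 50 mM NaCl, 0.05% CHAPS, 1 mM DTT; 120 min at room temperature. Eight-point dilutions; IC50 by four-parameter logistic fit.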

[2] = test system: S6 Ribosomal Protein phosphorylation Ser235/236 in TSC1 null mouse embryo fibroblast (MEF) cells; assay: Reverse protein array assay, S6 Ribosomal Protein phosphorylation Ser235/236 in TSC1 null MEF cells; type: cell-based; details: 1 h, pS6 ribosomal protein Ser235/236, 60 minutes incubation, read-out: p-S6 IC50
How it was run: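 TSC1−/− MEFs, seeded and held ≥20 h at 37 °C/5% CO2, were exposed to 8-step serial compound dilutions (0.02% DMSO final; DMSO vehicle control) for 60 min at 37 °C. Cells were then lysed on ice for 10 min and lysates spotted onto reverse protein array chips.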

T1 sequence (P48736 144-1102 limits assumed): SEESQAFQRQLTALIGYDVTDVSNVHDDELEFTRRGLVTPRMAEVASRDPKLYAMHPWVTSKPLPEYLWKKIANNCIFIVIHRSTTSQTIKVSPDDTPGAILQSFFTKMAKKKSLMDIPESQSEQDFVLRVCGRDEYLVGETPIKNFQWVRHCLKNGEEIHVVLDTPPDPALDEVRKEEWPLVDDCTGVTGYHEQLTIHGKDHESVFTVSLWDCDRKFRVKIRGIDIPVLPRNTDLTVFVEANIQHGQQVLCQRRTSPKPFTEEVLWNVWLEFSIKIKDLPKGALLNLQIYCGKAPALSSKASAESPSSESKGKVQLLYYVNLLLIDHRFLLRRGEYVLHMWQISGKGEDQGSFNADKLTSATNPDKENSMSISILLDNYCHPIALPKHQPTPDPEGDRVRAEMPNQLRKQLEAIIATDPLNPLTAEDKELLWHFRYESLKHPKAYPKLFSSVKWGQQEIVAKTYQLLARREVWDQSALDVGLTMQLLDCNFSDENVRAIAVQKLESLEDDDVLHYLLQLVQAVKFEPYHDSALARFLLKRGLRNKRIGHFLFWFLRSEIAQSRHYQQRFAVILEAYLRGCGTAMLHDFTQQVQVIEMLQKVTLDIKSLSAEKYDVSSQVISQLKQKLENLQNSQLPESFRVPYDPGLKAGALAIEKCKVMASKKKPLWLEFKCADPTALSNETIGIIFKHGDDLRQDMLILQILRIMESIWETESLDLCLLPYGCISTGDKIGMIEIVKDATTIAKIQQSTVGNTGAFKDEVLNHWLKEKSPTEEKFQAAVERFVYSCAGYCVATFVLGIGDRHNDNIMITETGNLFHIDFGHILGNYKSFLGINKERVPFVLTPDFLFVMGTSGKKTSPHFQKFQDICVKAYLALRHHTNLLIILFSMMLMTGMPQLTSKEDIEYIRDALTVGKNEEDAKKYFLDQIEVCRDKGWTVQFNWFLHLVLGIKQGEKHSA

Compound	IC50 [1]	IC50 [2]
COc1ccc(-c2ccc3ncc4c(c3c2)n(-c2ccnn2C)c(=O)n4C)cc1OC [Example 1.3, 8-(3,4-Dimethoxy-phenyl)-3-methyl-1-(2-methyl-2H-pyrazol-3-yl)-1,3-dihydro-imidazo[4,5-c]quinolin-2-one]	540 nM	
COc1ccc(-c2ccc3ncc4c(c3c2)n(-c2cn(C(C)C)nc2C)c(=O)n4C)cn1 [Example 2.8, 1-(1-Isopropyl-3-methyl-1H-pyrazol-4-yl)-8-(6-methoxy-pyridin-3-yl)-3-methyl-1,3-dihydro-imidazo[4,5-c]quinolin-2-one]	205 nM	21 nM
CCOc1ccc(-c2ccc3ncc4c(c3c2)n(-c2cnn(C)c2C)c(=O)n4C)cn1 [Example 3.6, 1-(1,5-Dimethyl-1H-pyrazol-4-yl)-8-(6-ethoxy-pyridin-3-yl)-3-methyl-1,3-dihydro-imidazo[4,5-c]quinolin-2-one]	182 nM	15 nM
CNC(=O)c1ccc(-c2ccc3ncc4c(c3c2)n(-c2cn(C(C)C)nc2C)c(=O)n4C)cn1 [Example 15.3, 5-[1-(1-Isopropyl-3-methyl-1H-pyrazol-4-yl)-3-methyl-2-oxo-2,3-dihydro-1H-imidazo[4,5-c]quinolin-8-yl]-pyridine-2-carboxylic acid methylamide]	325 nM	17 nM
COCCOc1ccc(-c2ccc3ncc4c(c3c2)n(-c2cn(C)nc2C)c(=O)n4C)cn1 [Example 18, 1-(1,3-Dimethyl-1H-pyrazol-4-yl)-8-[6-(2-methoxy-ethoxy)-pyridin-3-yl]-3-methyl-1,3-dihydro-imidazo[4,5-c]quinolin-2-one]	397 nM	
CCOc1ccc(-c2ccc3ncc4c(c3c2)n(-c2cn(CC)nc2C)c(=O)n4C)cc1OCC [Example 27.1, 8-(3,4-Diethoxy-phenyl)-1-(1-ethyl-3-methyl-1H-pyrazol-4-yl)-3-methyl-1,3-dihydro-imidazo[4,5-c]quinolin-2-one]	215 nM	13 nM
CCOc1cc(-c2ccc3ncc4c(c3c2)n(-c2c(C)nn(C)c2C)c(=O)n4C)ccc1OC [Example 28.2, 8-(3-Ethoxy-4-methoxy-phenyl)-3-methyl-1-(1,3,5-trimethyl-1H-pyrazol-4-yl)-1,3-dihydro-imidazo[4,5-c]quinolin-2-one]	174 nM	
CCOc1cc(-c2ccc3ncc4c(c3c2)n(-c2cn(C)nc2C)c(=O)n4C)ccc1OC [Example 28.3, 1-(1,3-Dimethyl-1H-pyrazo1-4-yl)-8-(3-ethoxy-4-methoxy-phenyl)-3-methyl-1,3-dihydro-imidazo[4,5-c]quinolin-2-one]	194 nM	2 nM
CCOc1ccc(-c2ccc3ncc4c(c3c2)n(-c2cn(C)nc2C)c(=O)n4C)cc1OC [Example 29.3, 1-(1,3-Dimethyl-1H-pyrazol-4-yl)-8-(4-ethoxy-3-methoxy-phenyl)-3-methyl-1,3-dihydro-imidazo[4,5-c]quinolin-2-one]	169 nM	4 nM
CCn1cc(-n2c(=O)n(C)c3cnc4ccc(-c5ccc(OCCOC)c(OC)c5)cc4c32)c(C)n1 [Example 30.2, 1-(1-Ethyl-3-methyl-1H-pyrazol-4-yl)-8-[3-methoxy-4-(2-methoxy-ethoxy)-phenyl]-3-methyl-1,3-dihydro-imidazo[4,5-c]quinolin-2-one]	150 nM	41 nM
Cc1nn(C)cc1-n1c(=O)n(C)c2cnc3ccc(-c4cccc(O)c4)cc3c21 [Example 32.1, 1-(1,3-Dimethyl-1H-pyrazol-4-yl)-8-(3-hydroxy-phenyl)-3-methyl-1,3-dihydro-imidazo[4,5-c]quinolin-2-one]	140 nM	11 nM
Cc1nn(C)cc1-n1c(=O)n(C)c2cnc3ccc(-c4cccc5c4OC(F)(F)O5)cc3c21 [Example 35, 8-(2,2-Difluoro-benzo[1,3]dioxol-4-yl)-1-(1,3-dimethyl-1H-pyrazol-4-yl)-3-methyl-1,3-dihydro-imidazo[4,5-c]quinolin-2-one]	113 nM	2 nM
Cc1nn(C)cc1-n1c(=O)n(C)c2cnc3ccc(-c4ccccc4)cc3c21 [Example 37.1, 1-(1,3-Dimethyl-1H-pyrazol-4-yl)-3-methyl-8-phenyl-1,3-dihydro-imidazo[4,5-c]quinolin-2-one]	144 nM	30 nM
Cc1nn(C)cc1-n1c(=O)n(C)c2cnc3ccc(-c4cccc(S(C)(=O)=O)c4)cc3c21 [Example 40, 1-(1,3-Dimethyl-1H-pyrazol-4-yl)-8-(3-methanesulfonyl-phenyl)-3-methyl-1,3-dihydro-imidazo[4,5-c]quinolin-2-one]	83 nM	36 nM
Cc1nn(C)cc1-n1c(=O)n(C)c2cnc3ccc(-c4ccc(C(N)=O)cc4)cc3c21 [Example 41, 4-[1-(1,3-Dimethyl-1H-pyrazol-4-yl)-3-methyl-2-oxo-2,3-dihydro-1H-imidazo[4,5-c]quinolin-8-yl]-benzamide]	165 nM	23 nM
Cc1nn(C)cc1-n1c(=O)n(C)c2cnc3ccc(-c4cccc(C(N)=O)c4)cc3c21 [Example 46, 3-[1-(1,3-Dimethyl-1H-pyrazol-4-yl)-3-methyl-2-oxo-2,3-dihydro-1H-imidazo[4,5-c]quinolin-8-yl]-benzamide]	388 nM	98 nM
Cc1nn(C)cc1-n1c(=O)n(C)c2cnc3ccc(-c4ccc5c(c4)CC(=O)N5)cc3c21 [Example 49, 1-(1,3-Dimethyl-1H-pyrazol-4-yl)-3-methyl-8-(2-oxo-2,3-dihydro-1H-indol-5-yl)-1,3-dihydro-imidazo[4,5-c]quinolin-2-one]	278 nM	217 nM
Cc1nn(C)cc1-n1c(=O)n(C)c2cnc3ccc(-c4cccc(S(=O)(=O)N(C)C)c4)cc3c21 [Example 53.1, 3-[1-(1,3-Dimethyl-1H-pyrazol-4-yl)-3-methyl-2-oxo-2,3-dihydro-1H-imidazo[4,5-c]quinolin-8-yl]-N,N-dimethyl-benzenesulfonamide]	190 nM	43 nM
COc1ncc(-c2ccc3ncc4c(c3c2)n(-c2cn(C)nc2C)c(=O)n4C)cc1[N+](=O)[O-] [Example 66, 1-(1,3-dimethyl-1H-pyrazol-4-yl)-8-(6-methoxy-5-nitro-pyridin-3-yl)-3-methyl-1,3-dihydro-imidazo[4,5-c]quinolin-2-one]	356 nM	
Cc1nn(C)cc1-n1c(=O)n(C)c2cnc3ccc(-c4cncc(N(C)S(C)(=O)=O)c4)cc3c21 [Example 121, N-{5-[1-(1,3-Dimethyl-1H-pyrazol-4-yl)-3-methyl-2-oxo-2,3-dihydro-1H-imidazo[4,5-c]quinolin-8-yl]-pyridin-3-yl}-N-methyl-methanesulfonamide]	184 nM	
[2H]C([2H])([2H])OCc1ncc(-c2ccc3ncc4c(c3c2)n(-c2cn(C)nc2Cl)c(=O)n4C)cc1OC [Example 199, 1-(3-Chloro-1-methyl-1H-pyrazol-4-yl)-8-(5-methoxy-6-trideuteromethoxymethyl-pyridin-3-yl)-3-methyl-1,3-dihydro-imidazo[4,5-c]quinolin-2-one]		2 nM
COCc1cc(-c2ccc3ncc4c(c3c2)n(-c2cn(C)nc2C)c(=O)n4C)cnc1OC [Example 202, 1-(1,3-Dimethyl-1H-pyrazol-4-yl)-8-(6-methoxy-5-methoxymethyl-pyridin-3-yl)-3-methyl-1,3-dihydro-imidazo[4,5-c]quinolin-2-one]		1 nM
Cc1nn(C)cc1-n1c(=O)n(C)c2cnc3ccc(-c4cnc5c(c4)OCCN5C)cc3c21 [Example 209, 1-(1,3-Dimethyl-1H-pyrazol-4-yl)-3-methyl-8-(4-methyl-3,4-dihydro-2H-pyrido[3,2-b][1,4]oxazin-7-yl)-1,3-dihydro-imidazo[4,5-c]quinolin-2-one]		2 nM
Cc1nn(C)cc1-n1c(=O)n(C)c2cnc3ccc(-c4cncc(C(C)(C)O)c4)cc3c21 [Example 215.2, 1-(1,3-Dimethyl-1H-pyrazol-4-yl)-8-[5-(1-hydroxy-1-methyl-ethyl)-pyridin-3-yl]-3-methyl-1,3-dihydro-imidazo[4,5-c]quinolin-2-one]		3 nM
Cc1nn(C)cc1-n1c(=O)n(C)c2cnc3ccc(-c4cncc(C5(O)CCCC5)c4)cc3c21 [Example 218, 1-(1,3-Dimethyl-1H-pyrazol-4-yl)-8-[5-(1-hydroxy-cyclopentyl)-pyridin-3-yl]-3-methyl-1,3-dihydro-imidazo[4,5-c]quinolin-2-one]		< 0.5 nM
Cc1nn(C)cc1-n1c(=O)n(C)c2cnc3ccc(-c4cncc(C(C)(C)C#N)c4)cc3c21 [Example 220.1, 2-{5-[1-(1,3-Dimethyl-1H-pyrazol-4-yl)-3-methyl-2-oxo-2,3-dihydro-1H-imidazo[4,5-c]quinolin-8-yl]-pyridin-3-yl}-2-methyl-propionitrile]		1 nM
CNC(=O)c1cc(-c2ccc3ncc4c(c3c2)n(-c2cn(C(C)C)nc2C)c(=O)n4C)cnc1N [Example 224.2, 2-Amino-5-[1-(1-isopropyl-3-methyl-1H-pyrazol-4-yl)-3-methyl-2-oxo-2,3-dihydro-1H-imidazo[4,5-c]quinolin-8-yl]-N-methyl-nicotinamide]		20 nM
COc1ncc(-c2ccc3ncc4c(c3c2)n(-c2cn(C)nc2C)c(=O)n4C)c(OC)n1 [Example 234.2, 8-(2,4-Dimethoxy-pyrimidin-5-yl)-1-(1,3-dimethyl-1H-pyrazol-4-yl)-3-methyl-1,3-dihydro-imidazo[4,5-c]quinolin-2-one]		1 nM
